Measured values from patent publication US11076596B2, “Substituted trifluoromethyloxadiazoles for combating phytopathogenic fungi” (BASF SE, priority 2017, dated 2021).

- melting point: 175 °C
Structure (SMILES): CO/N=C1\CCCC1NC(=O)c1ccc(-c2noc(C(F)(F)F)n2)cc1 (stereo not shown) [Ex-1, N-[(2E)-2-methoxyiminocyclopentyl]-4-[5-(trifluoromethyl)-1,2,4-oxadiazol-3-yl]benzamide]
